Test results taken from ChEMBL document CHEMBL1150336, “Synthesis and antibacterial activity of novel pyrido[1,2,3-de][1,4]benzoxazine-6-carboxylic acid derivatives carrying the 3-cyclopropylaminomethyl-4-substituted-1-pyrrolidinyl group as a C-10 substituent” (J Med Chem, 2008).
Converted amounts (≈) assume the structure as drawn.

Legend:
Enterococcus faecalis [1] = assay: Antibacterial activity against Enterococcus faecalis IID682 after 18 hrs by agar dilution method; assay type: functional
Mus musculus [2] = assay: Toxicity in ICR mouse assessed as mortality administered as single dose at 200 mg/kg, iv after 7 days; assay type: organism-based; parameters: dose 200 mg/kg, route intravenous; conditions: in vivo, 168 h
Staphylococcus aureus [3] = assay: Antibacterial activity against Staphylococcus aureus Smith after 18 hrs by agar dilution method; assay type: functional
Mus musculus [4] = assay: Toxicity in ICR mouse assessed as mortality administered as single dose at 100 mg/kg, iv after 7 days; assay type: organism-based; parameters: dose 100 mg/kg, route intravenous; conditions: in vivo, 168 h
Escherichia coli = assay: Antibacterial activity against Escherichia coli NIHJ JC2 after 18 hrs by agar dilution method; assay type: functional; conditions: NIHJ JC2, 18 h
Enterococcus faecalis [5] = assay: Antibacterial activity against vancomycin-resistant Enterococcus faecalis KU1866 after 18 hrs by agar dilution method; assay type: functional
Mus musculus [6] = assay: Toxicity in intracerebroventricularly dosed ICR mouse assessed as induction of convulsion after 2 hrs in presence of fenbufen; assay type: organism-based; conditions: in vivo, icv_or_intrathecal
Pseudomonas aeruginosa = assay: Antibacterial activity against Pseudomonas aeruginosa IID1210 after 18 hrs by agar dilution method; assay type: functional
Klebsiella pneumoniae = assay: Antibacterial activity against Klebsiella pneumoniae IID5209 after 18 hrs by agar dilution method; assay type: functional
Enterococcus faecalis [7] = assay: Antibacterial activity against vancomycin-resistant Enterococcus faecalis KU1856 after 18 hrs by agar dilution method; assay type: functional
Staphylococcus aureus [8] = assay: Antibacterial activity against quinoline-resistant Staphylococcus aureus OITI MR1-1002 isolate after 18 hrs by agar dilution method; assay type: functional
Enterococcus faecalis [9] = assay: Antibacterial activity against quinoline-resistant Enterococcus faecalis No.15 isolate after 18 hrs by agar dilution method; assay type: functional
Streptococcus pneumoniae [10] = assay: Antibacterial activity against quinoline-resistant Streptococcus pneumoniae no.55 isolate after 18 hrs by agar dilution method; assay type: functional
Streptococcus pyogenes = assay: Antibacterial activity against Streptococcus pyogenes IID692 after 18 hrs by agar dilution method; assay type: functional
Streptococcus pneumoniae [11] = assay: Antibacterial activity against Streptococcus pneumoniae type 3 after 18 hrs by agar dilution method; assay type: functional
Haemophilus influenzae = assay: Antibacterial activity against Haemophilus influenzae IID983 after 18 hrs by agar dilution method; assay type: functional
Mus musculus [12] = assay: Toxicity in intracerebroventricularly dosed ICR mouse assessed as induction of convulsion after 2 hrs in absence of fenbufen; assay type: organism-based; conditions: in vivo, icv_or_intrathecal
Mus musculus [13] = assay: Phototoxicity in orally dosed ICR mouse assessed as skin erythema after 72 hrs; assay type: organism-based; conditions: in vivo, po
Staphylococcus aureus [14] = assay: Antibacterial activity against Staphylococcus aureus Smith infected in po dosed ICR mouse administered 1 hr after bacterial challenge measured at 7 days post infection; assay type: functional
[15] = Inhibition of Staphylococcus aureus MS5935 wild type topoisomerase 4-mediated decatenation activity
Staphylococcus aureus [16] = assay: Antibacterial activity against quinoline-resistant Staphylococcus aureus MS5935 containing single grlA and single gyrA mutation after 18 hrs by agar dilution method; assay type: functional
Staphylococcus aureus [17] = assay: Antibacterial activity against Staphylococcus aureus Smith infected in subcutaneously dosed ICR mouse administered 1 hr after bacterial challenge measured at 7 days post infection; assay type: functional; conditions: sc
DNA gyrase [18] = molecular target: T1, DNA gyrase (Staphylococcus aureus, UniProt P0A0K8+P20831); assay: Inhibition of quinoline-resistant Staphylococcus aureus MS5935 DNA gyrase-mediated supercoiling activity; assay type: protein-complex assay
Staphylococcus aureus [19] = assay: Antibacterial activity against quinoline-resistant wild type Staphylococcus aureus MS5935 after 18 hrs by agar dilution method; assay type: functional
Streptococcus pneumoniae [20] = assay: Antibacterial activity against Streptococcus pneumoniae type 3 infected in po dosed ICR mouse administered 1 hr after bacterial challenge measured at 7 days post infection; assay type: functional
Staphylococcus aureus [21] = assay: Antibacterial activity against quinoline-resistant Staphylococcus aureus MS5935 containing single grlA mutation after 18 hrs by agar dilution method; assay type: functional
DNA gyrase [22] = molecular target: T1, DNA gyrase; assay: Inhibition of Staphylococcus aureus MS5935 wild type DNA gyrase-mediated supercoiling activity; assay type: protein-complex assay
Streptococcus pneumoniae [23] = assay: Antibacterial activity against Streptococcus pneumoniae type 3 infected in subcutaneously dosed ICR mouse administered 1 hr after bacterial challenge measured at 7 days post infection; assay type: functional; conditions: sc
Staphylococcus aureus [24] = assay: Antibacterial activity against quinoline-resistant Staphylococcus aureus MS5935 containing double grlA and double gyrA mutation after 18 hrs by agar dilution method; assay type: functional
[25] = Inhibition of quinoline-resistant Staphylococcus aureus MS5935 topoisomerase 4-mediated decatenation activity
Staphylococcus aureus [26] = assay: Antibacterial activity against quinoline-resistant Staphylococcus aureus MS5935 containing double grlA and single gyrA mutation after 18 hrs by agar dilution method; assay type: functional

T1 sequence (P0A0K8 whole entry): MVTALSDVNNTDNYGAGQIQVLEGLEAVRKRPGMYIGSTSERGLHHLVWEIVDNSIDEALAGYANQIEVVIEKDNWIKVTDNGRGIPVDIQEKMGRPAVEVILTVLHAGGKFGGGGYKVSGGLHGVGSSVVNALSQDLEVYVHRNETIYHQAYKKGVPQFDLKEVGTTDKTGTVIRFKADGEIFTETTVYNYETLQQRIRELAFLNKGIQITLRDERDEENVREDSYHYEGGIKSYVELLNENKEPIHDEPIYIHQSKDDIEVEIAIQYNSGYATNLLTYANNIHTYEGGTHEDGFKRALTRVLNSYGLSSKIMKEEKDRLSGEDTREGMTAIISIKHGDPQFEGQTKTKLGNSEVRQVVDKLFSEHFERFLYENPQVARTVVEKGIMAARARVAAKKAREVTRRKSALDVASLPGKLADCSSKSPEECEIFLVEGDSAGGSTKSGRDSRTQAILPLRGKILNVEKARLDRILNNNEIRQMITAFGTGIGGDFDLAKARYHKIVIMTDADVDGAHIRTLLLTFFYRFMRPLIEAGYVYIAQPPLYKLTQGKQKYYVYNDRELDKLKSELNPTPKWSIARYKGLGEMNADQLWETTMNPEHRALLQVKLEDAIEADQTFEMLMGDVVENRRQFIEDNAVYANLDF
T1 sequence (P20831 whole entry): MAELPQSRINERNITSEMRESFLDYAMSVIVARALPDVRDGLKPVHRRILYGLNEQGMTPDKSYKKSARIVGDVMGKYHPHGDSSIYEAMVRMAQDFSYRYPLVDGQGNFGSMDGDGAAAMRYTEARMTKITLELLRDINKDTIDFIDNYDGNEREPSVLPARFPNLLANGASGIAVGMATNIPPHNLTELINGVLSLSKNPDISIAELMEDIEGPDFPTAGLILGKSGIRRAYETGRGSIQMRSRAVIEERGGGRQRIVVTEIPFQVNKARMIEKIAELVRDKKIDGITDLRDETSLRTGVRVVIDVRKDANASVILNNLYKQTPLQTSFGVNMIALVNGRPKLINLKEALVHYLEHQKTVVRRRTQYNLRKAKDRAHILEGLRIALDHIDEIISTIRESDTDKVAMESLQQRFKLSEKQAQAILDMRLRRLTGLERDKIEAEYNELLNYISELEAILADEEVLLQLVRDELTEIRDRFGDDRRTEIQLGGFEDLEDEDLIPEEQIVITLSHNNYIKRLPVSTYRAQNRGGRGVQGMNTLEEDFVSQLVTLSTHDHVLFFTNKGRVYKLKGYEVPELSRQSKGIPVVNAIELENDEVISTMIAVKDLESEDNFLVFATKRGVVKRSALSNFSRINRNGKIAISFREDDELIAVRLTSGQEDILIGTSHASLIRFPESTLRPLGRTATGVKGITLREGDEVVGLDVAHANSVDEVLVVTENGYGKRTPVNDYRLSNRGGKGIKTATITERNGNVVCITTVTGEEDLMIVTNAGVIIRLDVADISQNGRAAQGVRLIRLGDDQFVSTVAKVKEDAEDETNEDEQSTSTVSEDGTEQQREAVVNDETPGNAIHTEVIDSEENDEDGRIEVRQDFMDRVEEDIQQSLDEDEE

| SMILES | MIC (Enterococcus faecalis [1]) [µg/mL] | Activity (Mus musculus [2]) | MIC (Staphylococcus aureus [3]) [µg/mL] | Activity (Mus musculus [4]) | MIC (Escherichia coli) [µg/mL] | MIC (Enterococcus faecalis [5]) [µg/mL] | Activity (Mus musculus [6]) [µg] | MIC (Pseudomonas aeruginosa) [µg/mL] | MIC (Klebsiella pneumoniae) [µg/mL] | MIC (Enterococcus faecalis [7]) [µg/mL] | MIC (Staphylococcus aureus [8]) [µg/mL] | MIC (Enterococcus faecalis [9]) [µg/mL] | MIC (Streptococcus pneumoniae [10]) [µg/mL] | MIC (Streptococcus pyogenes) [µg/mL] | MIC (Streptococcus pneumoniae [11]) [µg/mL] | MIC (Haemophilus influenzae) [µg/mL] | Activity (Mus musculus [12]) [µg] | Activity (Mus musculus [13]) | further results |
| --- | --- | --- | --- | --- | --- | --- | --- | --- | --- | --- | --- | --- | --- | --- | --- | --- | --- | --- | --- |
| C[C@H]1CN(c2c(F)cc3c(=O)c(C(=O)O)cn4c3c2OC[C@@H]4C)C[C@@H]1CNC1CC1 | 0.031 (≈ 0.0746 µM) | Toxic | 0.002 (≈ 0.00481 µM) | Non-toxic | 0.016 (≈ 0.0385 µM) | 1 (≈ 2.41 µM) | > 40 | 4 (≈ 9.63 µM) | 0.125 (≈ 0.301 µM) | 1 (≈ 2.41 µM) | 2 (≈ 4.81 µM) | 1 (≈ 2.41 µM) | 0.5 (≈ 1.2 µM) | 0.016 (≈ 0.0385 µM) | 0.016 (≈ 0.0385 µM) | 0.008 (≈ 0.0193 µM) | > 40 | – | – |
| C[C@@H]1CN(c2c(F)cc3c(=O)c(C(=O)O)cn4c3c2OC[C@@H]4CF)C[C@@H]1CNC1CC1 | 0.063 (≈ 0.145 µM) | Toxic | 0.008 (≈ 0.0185 µM) | – | 0.016 (≈ 0.0369 µM) | 1 (≈ 2.31 µM) | 10 | 2 (≈ 4.61 µM) | 0.063 (≈ 0.145 µM) | 1 (≈ 2.31 µM) | 0.5 (≈ 1.15 µM) | 1 (≈ 2.31 µM) | 0.125 (≈ 0.288 µM) | 0.031 (≈ 0.0715 µM) | 0.016 (≈ 0.0369 µM) | 0.004 (≈ 0.00923 µM) | 20 | Non-toxic | – |
| C[C@H]1CN(c2c(F)cc3c(=O)c(C(=O)O)cn4c3c2OC[C@@H]4CF)C[C@@H]1CNC1CC1 | 0.063 (≈ 0.145 µM) | – | 0.008 (≈ 0.0185 µM) | Non-toxic | 0.016 (≈ 0.0369 µM) | 1 (≈ 2.31 µM) | 20 | 4 (≈ 9.23 µM) | 0.125 (≈ 0.288 µM) | 1 (≈ 2.31 µM) | 2 (≈ 4.61 µM) | 1 (≈ 2.31 µM) | 0.5 (≈ 1.15 µM) | 0.031 (≈ 0.0715 µM) | 0.031 (≈ 0.0715 µM) | 0.008 (≈ 0.0185 µM) | 40 | Non-toxic | – |
| CCNCC1CCN(c2c(F)cc3c(=O)c(C(=O)O)cn4c3c2OC[C@@H]4C)C1 (stereo partly specified) | 0.25 (≈ 0.642 µM) | – | 0.125 (≈ 0.321 µM) | – | 0.031 (≈ 0.0796 µM) | 16 (≈ 41.1 µM) | – | 4 (≈ 10.3 µM) | – | 16 (≈ 41.1 µM) | 32 (≈ 82.2 µM) | 32 (≈ 82.2 µM) | 2 (≈ 5.14 µM) | 0.063 (≈ 0.162 µM) | 0.063 (≈ 0.162 µM) | – | – | – | – |
| C[C@H]1COc2c(N3C[C@H](CNC4CC4)[C@H](F)C3)c(F)cc3c(=O)c(C(=O)O)cn1c23 | 0.063 (≈ 0.15 µM) | Non-toxic | 0.008 (≈ 0.0191 µM) | Non-toxic | 0.008 (≈ 0.0191 µM) | 0.5 (≈ 1.19 µM) | > 40 | 2 (≈ 4.77 µM) | 0.031 (≈ 0.0739 µM) | 0.5 (≈ 1.19 µM) | 1 (≈ 2.38 µM) | 0.5 (≈ 1.19 µM) | 0.125 (≈ 0.298 µM) | 0.031 (≈ 0.0739 µM) | 0.016 (≈ 0.0381 µM) | 0.004 (≈ 0.00954 µM) | > 40 | – | – |
| NC1CCN(c2c(F)cc3c(=O)c(C(=O)O)cn(C4CC4)c3c2Cl)C1 (stereo unspecified) [CLINAFLOXACIN] | 0.063 (≈ 0.172 µM) | Non-toxic | 0.016 (≈ 0.0437 µM) | Non-toxic | 0.002 (≈ 0.00547 µM) | 4 (≈ 10.9 µM) | 5 | 0.125 (≈ 0.342 µM) | 0.004 (≈ 0.0109 µM) | 2 (≈ 5.47 µM) | 8 (≈ 21.9 µM) | 8 (≈ 21.9 µM) | 0.5 (≈ 1.37 µM) | 0.063 (≈ 0.172 µM) | 0.031 (≈ 0.0847 µM) | ≤ 0.001 | 10 | Toxic | ED50 (Staphylococcus aureus [14]): 2.1 mg/kg; IC50 [15]: 1.89 µg/mL (≈ 5.17 µM); MIC (Staphylococcus aureus [16]): 0.5 µg/mL (≈ 1.37 µM); ED50 (Staphylococcus aureus [17]): 0.35 mg/kg; IC50 (DNA gyrase [18]): 44.3 µM; MIC (Staphylococcus aureus [19]): 0.016 µg/mL (≈ 0.0437 µM); ED50 (Streptococcus pneumoniae [20]): 15 mg/kg; MIC (Staphylococcus aureus [21]): 0.063 µg/mL (≈ 0.172 µM); IC50 (DNA gyrase [22]): 3.14 µM; ED50 (Streptococcus pneumoniae [23]): 45 mg/kg; MIC (Staphylococcus aureus [24]): 8 µg/mL (≈ 21.9 µM); IC50 [25]: 13.9 µg/mL (≈ 38 µM); MIC (Staphylococcus aureus [26]): 2 µg/mL (≈ 5.47 µM) |
| O=C(O)c1cn2c3c(c(N4C[C@H](CNC5CC5)[C@H](F)C4)c(F)cc3c1=O)OC[C@@H]2CF | 0.063 (≈ 0.144 µM) | Non-toxic | 0.008 (≈ 0.0183 µM) | Non-toxic | 0.008 (≈ 0.0183 µM) | 0.5 (≈ 1.14 µM) | > 40 | 2 (≈ 4.57 µM) | 0.031 (≈ 0.0709 µM) | 0.5 (≈ 1.14 µM) | 1 (≈ 2.29 µM) | 1 (≈ 2.29 µM) | 0.25 (≈ 0.572 µM) | 0.031 (≈ 0.0709 µM) | 0.016 (≈ 0.0366 µM) | 0.004 (≈ 0.00914 µM) | > 40 | Non-toxic | ED50 (Staphylococcus aureus [14]): 0.5 mg/kg; IC50 [15]: 1.27 µg/mL (≈ 2.9 µM); MIC (Staphylococcus aureus [16]): 0.25 µg/mL (≈ 0.572 µM); ED50 (Staphylococcus aureus [17]): 0.12 mg/kg; IC50 (DNA gyrase [18]): 31.1 µM; MIC (Staphylococcus aureus [19]): 0.016 µg/mL (≈ 0.0366 µM); ED50 (Streptococcus pneumoniae [20]): 4 mg/kg; MIC (Staphylococcus aureus [21]): 0.031 µg/mL (≈ 0.0709 µM); IC50 (DNA gyrase [22]): 2.42 µM; ED50 (Streptococcus pneumoniae [23]): 2.9 mg/kg; MIC (Staphylococcus aureus [24]): 4 µg/mL (≈ 9.14 µM); IC50 [25]: 7 µg/mL (≈ 16 µM); MIC (Staphylococcus aureus [26]): 0.5 µg/mL (≈ 1.14 µM) |
